From patent US20240366624A1, “METHODS AND COMPOSITIONS FOR TREATING THROMBOTIC DISEASE” (Washington University, priority 2023, published 2024)
Entries after “also recorded” stand apart in the source; their conditions may differ.

Legend:
WT (C57BL/6) mice [1] = test: Ex vivo platelet activation and aggregation after intravenous injection; type: in vivo, mouse
Method: FIG. 19(A-Q) is an exemplary embodiment of B12-5 having an antithrombotic effect without prolonging tail bleeding times in mice in accordance with the present disclosure. FIG. 19(A-C): Ex vivo effects of B12-5. […] One hour later, blood was drawn, followed by isolating platelets. P-selectin exposure (FIG. 19A) and αIIbβ3 integrin activation (FIG. 19B) were assessed in flow cytometry. FIG. 19C: Platelet aggregation was measured after treatment with 0.025 U/mL thrombin. The data represent the mean±SD (n=4). FIG. 19D: The plasma levels of B12-5 were analyzed by liquid chromatography-tandem mass spectrometry (LC-MS/MS) after intravenous injection of the compound (5 μg/g BW) into WT mice and quantified by comparison with a standard curve of B12-5 (mean±SD, n=3). […] The median integrated fluorescence intensities of anti-CD42c (F platelet) and anti-fibrin (F fibrin) antibodies (n=37-42 arterioles in 6 mice per group). Quantification of the antibody signal at a different time point after laser injury. […] Thirty minutes later, tail bleeding times and Hb contents were measured after amputation of the tail tip. […] Twenty-three hours later, neurological deficits were assessed by the Bederson score and grip test, and infarct volume was measured as described in Methods. […] Twenty-three hours later, the neurological deficit and infarct volume were measured as described above. […]

WT (C57BL/6) mice [2] = test: Intravital microscopy, laser-induced cremaster arteriolar injury, WT mice; type: in vivo, mouse; conditions: iv 5 μg/g BW
Method: Intravital microscopy was performed in a mouse model of laser-induced cremaster arteriolar injury as previously described. WT (C57BL/6), littermate WT control, and CKO and KO male mice (8-10 weeks old) were anesthetized with intraperitoneal injection of ketamine and xylazine. The cremaster muscle was exteriorized and superfused with 37° C. bicarbonate-buffered saline throughout the experiment. Arteriolar wall injury was induced by laser ablation (Photonics Instruments) as previously described. Multiple thrombi were generated in at least 3 to 4 different arterioles of 1 mouse, with new thrombi formed upstream of earlier thrombi to minimize any contribution from thrombi generated earlier in the mouse. Platelets and fibrin were visualized by infusion of DyLight 649-conjugated anti-CD42c (0.2 μg/g body weight [BW]) and Alexa Fluor 488-conjugated anti-fibrin (0.2 μg/g BW) antibodies, respectively. To detect extracellular Ero1α, Alexa Fluor 488-conjugated rabbit IgG or nonblocking anti-ERO1α antibodies (0.3 μg/g BW) were injected into WT (C57BL/6), WT control, Ero1α KO, and Ero1α CKO mice. In some experiments, wtERO1α or activity-null ERO1α-Cys94Ser (mutant ERO1α [mERO1α]; 4 μg/g BW) was infused into Ero1α KO mice before imaging. To test the effect of ERO1α inhibitors or blocking anti-ERO1α antibodies, WT (C57BL/6) mice were treated with intravenous injection of vehicle control, eptifibatide (5 μg/g BW), B12-5 (5 μg/g BW), isotype control IgGs, anti-ERO1α (15E9, 1-3 μg/g BW), or anti-PDI (BD34, 3 μg/g BW) 3 minutes before treatment with the anti-CD42c and anti-fibrin antibodies. The same dose of eptifibatide was injected every 20 minutes to maintain the inhibitory effect. […] Fluorescence and bright-field images were captured in 6 to 10 different cremaster arterioles with a diameter of 30 to 45 μm in each mouse and recorded using either an Olympus BX61W microscope with a 60×1.0 salt water immersion objective or a Zeiss Axio Examiner Z1 microscope system with a Yokogawa confocal spinning disk (CSU-W1) equipped with 4 stack laser system (405-, 488-, 561-, and 637-nm wavelengths). Images were collected with a high-speed, high-resolution camera (2304×2304 pixel format; ORCA-Fusion BT sCMOS, Hamamatsu). Time 0 was set to when image capture began on each vessel. The data were analyzed using Slidebook (version 6.0; Intelligent Imaging Innovations). Due to the significant variation between vessels in the same mouse, the result from each vessel was counted as an individual value. Representative images were chosen that most closely resemble the mean values in the quantifications.

Water solubility = type: physicochemical

O=C(CSc1nc(O)cc(O)n1)N1c2ccccc2Sc2ccccc21 [B12-5]
inhibitory effects ex vivo (WT (C57BL/6) mice [1]; 2 μg/g BW, data not shown): did not show inhibitory effects
P-selectin exposure, αIIbβ3 integrin activation, and aggregation ex vivo (WT (C57BL/6) mice [1]; iv 5 μg/g BW, blood drawn 1 hour later): significantly inhibited
platelet thrombus formation (WT (C57BL/6) mice [2]): significantly inhibited; also recorded: significantly reduced
platelet thrombus formation (WT (C57BL/6) mice [2]; listed as B112-5): inhibit
water solubility (Water solubility): poor
